Key:
[1] = tested on: Osteosarcoma Cells U2OS-EGFP-4A12G; assay: Effect on the proliferation of osteosarcoma cells U2OS-EGFP-4A12G (MTT); type: cell-based; details: n = 3
Procedure: Cells in the logarithmic growth phase were digested with trypsin, counted with trypan blue, and prepared into a cellular suspension with a density of 1×10^4 cells/mL. The suspension was seeded in a 96-well plate, 200 μL/well, about 2×10^3 cells/well, and pre-cultured for 24 h. […] A concentration of 0 mg/mL was used as a negative control group. After subsequent cultivatation for 0 h, 12 h, 24 h or 48 h, 20 μL MTT solution (5 mg/mL) was added to each well. The cultivation was terminated after another 4 h incubation. The supernatant in each well was sucked out carefully, and 150 μL of dimethyl sulfoxide (DMSO) was added to each well. The plate was shaken for 10 min, so that formazan was dissolved thoroughly. The absorption value (A value) of each well was measured using an enzyme linked immunosorbent detector, at a selected wavelength of 490 nm. The measurement was repeated for 5 times.

[2] = tested on: Ovarian Cancer Cells SKOV3; assay: Effect on the proliferation of ovarian cancer cells SKOV3 (MTT); type: cell-based
Procedure: Cells in the logarithmic growth phase were digested with trypsin, added to a 96-well plate, in a density of 6×10^3 cells/well, and cultured in a 37° C., 5% CO2 incubator. The next day, the plated was transferred to and kept in a 4° C. incubator for 1 h after the adherence of most cells, so as to achieve synchronized growth of the cells. The supernatant was sucked out, and a RPMI 1640 medium containing 10% fetal calf serum (FCS) was added, 200 μL/well. The cells were grouped according to the design of the experiment. The injectable solution of the compound prepared with sterile physiological saline was added to the 96 wells, 200 μL/well, so that the concentrate of the medicament in each well were 1 mg/mL, 2 mg/mL and 5 mg/mL, respectively. A concentration of 0 mg/mL was used as a negative control group. After subsequent cultivation for 24, 48, or 72 h, 20 μL MTT solution (with a concentration of 5 mg/mL) was added to each well, respectively. The plate was shaken gently, returned to the incubator and incubated for another 4 h. Then the supernatant was sucked out completely, and 200 μL of dimethyl sulfoxide was added to each well. The plate was shaken for 5-10 min on a shaker. The absorption (A=580) of each well at a wavelength of 580 nm was measured using a microplate reader. The A=580 value was proportional to the number of live cells.

COc1ccc(-c2c(C(=O)c3ccccc3)oc3cc4c(cc23)CCCO4)cc1 [Example 1, 2-benzoyl-3-(4-methoxyphenyl)-6,7-dihydrogen-5H-furo[3,2-g]chromene]
melting point: 106.3 to 108.5 °C

COc1ccc(C(=O)c2oc3cc4c(cc3c2-c2ccccc2)CCCO4)cc1 [Example 2, 2-(4-methoxybenzoyl)-3-phenyl-6,7-dihydrogen-5H-furo[3,2-g]chromene]
melting point: 130.3 to 132.5 °C

COc1ccc(-c2c(C(=O)c3ccc(Cl)cc3)oc3cc4c(cc23)CCCO4)cc1 [Example 3, 2-(4-chlorobenzoyl)-3-(4-methoxyphenyl)-6,7-dihydrogen-5H-furo[3,2-g]chromene]
IC50 [1]: 21.7 µM

O=C(c1ccccc1)c1oc2cc3c(cc2c1-c1ccc(O)cc1)CCCO3 [Example 7, 2-benzoyl-3-(4-hydroxyphenyl)-6,7-dihydrogen-5H-furo[3,2-g]chromene]
IC50 ([2]; Homo sapiens, SK-OV-3, n = 3): 0.8 µM
IC50 [1]: 13.7 µM

CCN(CC)CCOc1ccc(-c2c(C(=O)c3ccccc3)oc3cc4c(cc23)CCCO4)cc1 [Example 21, 2-benzoyl-3-[4-(diethylaminoethoxy)phenyl]-6,7-dihydrogen-5H-furo[3,2-g]chromene]
IC50 ([2]; n = 3): 28.2 µM
IC50 [1]: 16.5 µM

O=C(c1ccc(Cl)cc1)c1oc2cc3c(cc2c1-c1ccc(OCCN2CCCCC2)cc1)CCCO3 [Example 30, 2-(4-chlorobenzoyl)-3-[4-(piperidinoethoxy)phenyl]-6,7-dihydrogen-5H-furo[3,2-g]chromene]
IC50 ([2]; n = 3): 72.2 µM
IC50 [1]: 26.3 µM

CCN(CC)CCOc1ccc(-c2c(C(=O)c3ccc(Cl)cc3)oc3cc4c(cc23)CCCO4)cc1 [Example 31, 2-(4-chlorobenzoyl)-3-[4-(diethylaminoethoxy)phenyl]-6,7-dihydrogen-5H-furo[3,2-g]chromene]
IC50 ([2]; Homo sapiens, SK-OV-3, n = 3): 8.5 µM
IC50 [1]: 36.1 µM

CCN(CC)CCOc1ccc(-c2c(C(=O)c3ccc(C)cc3)oc3cc4c(cc23)CCCO4)cc1 [Example 35, 2-(4-methylbenzoyl)-3-[4-(diethylaminoethoxy)phenyl]-6,7-dihydrogen-5H-furo[3,2-g]chromene]
IC50 ([2]; Homo sapiens, SK-OV-3, n = 3): 29.7 µM
IC50 [1]: 5.8 µM

Cc1ccc(C(=O)c2oc3cc4c(cc3c2-c2ccc(OCCN(C)C)cc2)CCCO4)cc1 [Example 36, 2-(4-methylbenzoyl)-3-[4-(dimethylaminoethoxy)phenyl]-6,7-dihydrogen-5H-furo[3,2-g]chromene]
IC50 ([2]; Homo sapiens, SK-OV-3, n = 3): 10.3 µM
IC50 [1]: 7.7 µM

O=C(c1ccc(Br)cc1)c1oc2cc3c(cc2c1-c1ccc(OCCN2CCOCC2)cc1)CCCO3 [Example 41, 2-(4-bromobenzoyl)-3-[4-(morpholinoethoxy)phenyl]-6,7-dihydrogen-5H-furo[3,2-g]chromene]
IC50 ([2]; Homo sapiens, SK-OV-3, n = 3): 42.5 µM
IC50 [1]: 5 µM

O=C(c1ccc(Br)cc1)c1oc2cc3c(cc2c1-c1ccc(OCCN2CCCCC2)cc1)CCCO3 [Example 42, 2-(4-bromobenzoyl)-3-[4-(piperidinoethoxy)phenyl]-6,7-dihydrogen-5H-furo[3,2-g]chromene]
IC50 ([2]; Homo sapiens, SK-OV-3, n = 3): 32.8 µM
IC50 [1]: 13.3 µM

CN(C)CCOc1ccc(-c2c(C(=O)c3ccc(Br)cc3)oc3cc4c(cc23)CCCO4)cc1 [Example 44, 2-(4-bromobenzoyl)-3-[4-(dimethylaminoethoxy)phenyl]-6,7-dihydrogen-5H-furo[3,2-g]chromene]
IC50 ([2]; Homo sapiens, SK-OV-3, n = 3): 19 µM
IC50 [1]: 15.6 µM

COc1ccc(-c2c(C(=O)c3ccc(OCCN4CCCCC4)cc3)oc3cc4c(cc23)CCCO4)cc1 [Example 48, 2-[4-(piperidinoethoxy)benzoyl]-3-(4-methoxyphenyl)-6,7-dihydrogen-5H-furo[3,2-g]chromene]
IC50 ([2]; Homo sapiens, SK-OV-3, n = 3): 14.5 µM
IC50 [1]: 5.1 µM

CCN(CC)CCOc1ccc(C(=O)c2oc3cc4c(cc3c2-c2ccc(OC)cc2)CCCO4)cc1 [Example 50, 2-[4-(diethylaminoethoxy)benzoyl]-3-(4-methoxyphenyl)-6,7-dihydrogen-5H-furo[3,2-g]chromene]
IC50 ([2]; Homo sapiens, SK-OV-3, n = 3): 14.5 µM
IC50 [1]: 5.5 µM

O=C(c1ccc(OCCN2CCCCC2)cc1)c1oc2cc3c(cc2c1-c1ccc(O)cc1)CCCO3 [Example 55, 2-[4-(piperidinoethoxy)benzoyl]-3-(4-hydroxyphenyl)-6,7-dihydrogen-5H-furo[3,2-g]chromene]
IC50 ([2]; n = 3): 13.6 µM
IC50 [1]: 10.8 µM
